Reference: patent US6156700A, “3-(1,2-Benzisothiazol- and isoxazol-5-yl)-2,4(1H,3H)-pyrimidinedione or thione and 3-(1,2-benzisothiazol- and isoxazol-5-yl)-4(3H)-pyrimidinone or thione herbicidal agents” (American Cyanmid Company, priority 1998, dated 2000)

Experiments:
[1] = system: Ragweed, Common, Ambrosia artemisifolia; assay: Postemergence herbicidal evaluation, AMBEL; assay type: in vivo, L.; conditions: 0.2500 kg/ha
How it was run: (§1)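 Test compounds, formulated in equal parts acetone and water plus 0.5% TWEEN 20, are applied by nozzle (40 psi) to seedlings about two weeks old at roughly 0.0157–0.500 kg/ha. Injury is scored 0–9 visually 4–5 weeks later, with multiple tests averaged.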

[2] = system: Sicklepod, Cassia obtusifolia; assay: Postemergence herbicidal evaluation, CASOB; assay type: in vivo, L.; conditions: 0.2500 kg/ha
How it was run: as §1

Galium, Galium aparine = assay: Postemergence herbicidal evaluation, GALAP; assay type: in vivo; conditions: 0.2500 kg/ha
How it was run: as §1

[3] = system: Foxtail, Green, Setaria viridis; assay: Postemergence herbicidal evaluation, SETVI; assay type: in vivo, (L.) Beau; conditions: 0.2500 kg/ha
How it was run: as §1

[4] = system: Rice, Tebonnet, Oryza sativa; assay: Postemergence herbicidal evaluation, ORYSAT; assay type: in vivo, (L.) Tebonnet; conditions: 0.2500 kg/ha
How it was run: as §1

[5] = system: Wheat, Winter, cv Riband, Triticum aestivum; assay: Postemergence herbicidal evaluation, TRZAWR; assay type: in vivo; conditions: 0.2500 kg/ha
How it was run: as §1

[6] = system: Velvetleaf, Abutilon theophrasti; assay: Preemergence herbicidal evaluation, ABUTH; assay type: in vivo, Medic.; conditions: 0.2500 kg/ha
Source text: (§2) Results of herbicide evaluation are expressed on a rating scale (0-9). The scale is based upon a visual observation of plant stand, vigor, malformation, size, chlorosis and overall plant appearance as compared with a control.
(§3) The preemergence herbicidal activity of the test compounds of the present invention is exemplified by the following tests in which the seeds of a variety of monocotyledonous and dicotyledonous plants are separately mixed with potting soil and planted on top of approximately one inch of soil in separate pint cups. After planting, the cups are sprayed with the selected aqueous acetone solution containing test compound in sufficient quantity to provide the equivalent of about 0.0156 to 0.500 kg per hectare of test compound per cup. The treated cups are then placed on greenhouse benches, watered and cared for in accordance with conventional greenhouse procedures. From four to five weeks after treatment, the tests are terminated and each cup is examined and rated according to the rating system provided in Example 185.
(§4) The compounds evaluated are reported by compound number given in Example 185.

[7] = system: Ragweed, Common, Ambrosia artemisifolia; assay: Preemergence herbicidal evaluation, AMBEL; assay type: in vivo, L.; conditions: 0.2500 kg/ha
Source text: as §2, §3, §4

[8] = system: Morningglory Spp., Ipomoea Spp.; assay: Preemergence herbicidal evaluation, IPOSS; assay type: in vivo; conditions: 0.2500 kg/ha
Source text: as §2, §3, §4

[9] = system: Barnyardgrass, Echinochloa crus-galli; assay: Preemergence herbicidal evaluation, ECHCG; assay type: in vivo, (L.) Beau; conditions: 0.2500 kg/ha
Source text: as §2, §3, §4

Corn, Field, Zea mays = assay: Preemergence herbicidal evaluation, ZEAMX; assay type: in vivo, L.; conditions: 0.2500 kg/ha
Source text: as §2, §3, §4

[10] = system: ECHORC Watergrass (Calif.); assay: Preemergence weed control, flooded paddy (Table III); assay type: in vivo, Echinochloa oryzoides; design: scale not given here
Method: (§5) Preemergence herbicidal activity under flooded paddy conditions is determined as follows: plant seeds or propagating organs are planted in the top 0.5 cm of silt loam soil in 32 oz. plastic containers with a diameter of 10.5 cm and no drainage holes. Water is added to these containers and maintained at 1.5 to 3 cm above the soil surface for the duration of the experiment. The test compounds are applied as aqueous/acetone mixtures 50/50 v/v pipetted directly into the flood water to give the equivalent of about 0.0313 to 0.500 kg/ha of active ingredient. The treated containers are placed on greenhouse benches and cared for in accordance with conventional greenhouse procedures. Three to four weeks after treatment, the test is terminated and each container is examined and herbicidal effect rated according to the rating system provided in Example 185. The compounds evaluated are reported by compound number given in Example 185.

CYPIR Rice Flatsedge [11] = assay: as above; assay type: in vivo, Cyperus iria; design: scale not given here
Method: as §5

MOOVA Monochoria [12] = assay: as above; assay type: in vivo, Monochoria vaginalis; design: scale not given here
Method: as §5

[13] = system: SAGPY Arrowhead (Pygmaea); assay: as above; assay type: in vivo, Sagittaria pygmaea; design: scale not given here
Method: as §5

[14] = system: ECHORC Watergrass (Calif.); assay: Postemergence weed control, flooded paddy (Table IV); assay type: in vivo, Echinochloa oryzoides; design: scale not given here
Source text: (§6) Plastic containers containing weeds which are 3 to 5 cm tall and rice seedlings at the 1.5 to 2.5 leaf stage are flooded with water. The water is maintained at 1.5 to 3 cm above the soil surface for the duration of the experiment. Test compounds are applied as aqueous/acetone mixtures 50/50 v/v directly into the flood water to provide the equivalent of about 0.0313 to 0.500 kg/ha of active ingredient. The treated containers are placed on greenhouse benches and cared for in accordance with conventional greenhouse procedures. Three to four weeks after treatment, the test is terminated and each container is examined and herbicidal effect rated according to the rating system provided in Example 185. The compounds evaluated are reported by compound number given in Example 185.

CYPIR Rice Flatsedge [15] = assay: as above; assay type: in vivo, Cyperus iria; design: scale not given here
Source text: as §6

MOOVA Monochoria [16] = assay: as above; assay type: in vivo, Monochoria vaginalis; design: scale not given here
Source text: as §6

Cc1cc(O)c(-c2nsc3ccc(-n4c(=O)cc(C(F)(F)F)n(C)c4=O)cc23)cc1C [Compound 11, 3-[3-(6-Hydroxy-3,4-xylyl)-1,2-benzisothiazol-5-yl]-1-methyl-6-(trifluoromethyl)-2,4(1H,3H)-pyrimidinedione]
7.0: herbicide rating (0-9) [2] | herbicidal effect rating ([10]; 0.0625 kg/ha) | herbicidal effect rating ([14]; 0.5000 kg/ha)
2.0: herbicide rating (0-9) [4] | herbicidal effect rating ([13]; 0.2500 kg/ha) | herbicidal effect rating ([14]; 0.1250 kg/ha)
4.0: herbicidal effect rating ([14]; 0.2500 kg/ha)
9.0: herbicide rating (0-9) [1] | herbicide rating (0-9) [6] | herbicide rating (0-9) [7] | herbicidal effect rating ([10]; 0.5000 kg/ha) | herbicidal effect rating (CYPIR Rice Flatsedge [11]; 0.0625 kg/ha) | herbicidal effect rating (CYPIR Rice Flatsedge [11]; 0.1250 kg/ha) | herbicidal effect rating (CYPIR Rice Flatsedge [11]; 0.2500 kg/ha) | herbicidal effect rating (CYPIR Rice Flatsedge [11]; 0.5000 kg/ha) | herbicidal effect rating (MOOVA Monochoria [12]; 0.0625 kg/ha) | herbicidal effect rating (MOOVA Monochoria [12]; 0.1250 kg/ha) | herbicidal effect rating (MOOVA Monochoria [12]; 0.2500 kg/ha) | herbicidal effect rating (MOOVA Monochoria [12]; 0.5000 kg/ha) | herbicidal effect rating ([13]; 0.5000 kg/ha) | herbicidal effect rating (CYPIR Rice Flatsedge [15]; 0.1250 kg/ha) | herbicidal effect rating (CYPIR Rice Flatsedge [15]; 0.2500 kg/ha) | herbicidal effect rating (CYPIR Rice Flatsedge [15]; 0.5000 kg/ha) | herbicidal effect rating (MOOVA Monochoria [16]; 0.1250 kg/ha) | herbicidal effect rating (MOOVA Monochoria [16]; 0.2500 kg/ha) | herbicidal effect rating (MOOVA Monochoria [16]; 0.5000 kg/ha)
5.0: herbicide rating (0-9) [5] | herbicide rating (0-9) [8] | herbicide rating (0-9) (Corn, Field, Zea mays)
0.0: herbicide rating (0-9) [9] | herbicidal effect rating ([13]; 0.0625 kg/ha) | herbicidal effect rating ([13]; 0.1250 kg/ha)
8.0: herbicide rating (0-9) [3] | herbicidal effect rating ([10]; 0.1250 kg/ha) | herbicidal effect rating ([10]; 0.2500 kg/ha)
6.0: herbicide rating (0-9) (Galium, Galium aparine)
